Test results from patent publication US9464092B2, “Transient protection of normal cells during chemotherapy” (G1 Therapeutics, Inc., priority 2013, dated 2016).
Like-named read-outs stand apart in the source and are kept apart here. One block for each molecule: values may come before it.

What was measured:
CDK2/CyclinA = CDK2/CyclinA (Homo sapiens (Human), UniProt P24941); assay: CDK2/CyclinA kinase assay (Nanosyn, Caliper microfluidic); assay type: biochemical; conditions: Table 2; for IC50: read-out: CDK2/CycA IC50
Experimental: (§1) Selected compounds disclosed herein were tested in CDK4/cyclinD1, CDK6/CycD3 CDK2/CycA and CDK2/cyclinE kinase assays by Nanosyn (Santa Clara, Calif.) to determine their inhibitory effect on these CDKs. The assays were performed using microfluidic kinase detection technology (Caliper Assay Platform). The compounds were tested in 12-point dose-response format in singlicate at Km for ATP. Phosphoacceptor substrate peptide concentration used was 1 μM for all assays and Staurosporine was used as the reference compound for all assays. Specifics of each assay are as described below:
CDK2/CyclinA: Enzyme concentration: 0.2 nM; ATP concentration: 50 μM; Incubation time: 3 hr.

CDK4/CyclinD1 = CDK4/CyclinD1 (Homo sapiens (Human), UniProt P11802); assay: CDK4/CyclinD1 kinase assay (Nanosyn, Caliper microfluidic); assay type: biochemical; conditions: Table 2; read-out: CDK4/CycD1 IC50
Sequence of CDK4/CyclinD1 (P11802 whole entry, species assumed): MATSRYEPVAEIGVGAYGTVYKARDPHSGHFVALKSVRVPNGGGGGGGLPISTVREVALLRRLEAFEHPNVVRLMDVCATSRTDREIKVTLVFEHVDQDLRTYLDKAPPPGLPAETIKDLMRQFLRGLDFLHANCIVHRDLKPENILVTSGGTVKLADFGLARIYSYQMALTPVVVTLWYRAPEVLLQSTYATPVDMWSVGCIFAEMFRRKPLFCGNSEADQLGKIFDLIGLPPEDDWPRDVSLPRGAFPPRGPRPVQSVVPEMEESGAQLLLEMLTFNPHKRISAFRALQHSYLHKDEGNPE
Sequence of CDK4/CyclinD1 (P24385 whole entry partner, species assumed): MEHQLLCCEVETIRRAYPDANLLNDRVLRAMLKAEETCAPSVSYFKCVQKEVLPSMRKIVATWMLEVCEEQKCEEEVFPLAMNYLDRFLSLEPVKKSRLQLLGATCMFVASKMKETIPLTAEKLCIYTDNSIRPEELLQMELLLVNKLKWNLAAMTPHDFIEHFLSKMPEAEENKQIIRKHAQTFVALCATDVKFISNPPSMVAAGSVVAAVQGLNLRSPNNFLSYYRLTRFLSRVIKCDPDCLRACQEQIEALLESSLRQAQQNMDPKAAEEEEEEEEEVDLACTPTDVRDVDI
Experimental: as §1
CDK4/CyclinD1: Enzyme concentration: 1 nM; ATP concentration: 200 μM; Incubation time: 10 hr.

CDK2/CyclinE = CDK2/CyclinE (Homo sapiens (Human), UniProt P24941); assay: CDK2/CyclinE kinase assay (Nanosyn, Caliper microfluidic); assay type: biochemical; conditions: Table 2; for IC50: read-out: CDK2/CycE IC50
Experimental: as §1, with “assays.” for “assays. Specifics of each assay are as described below:”

[1] = tested on: HS68 cells (human skin fibroblast cell line (Rb-positive)); assay: G1 arrest (cellular G1 and S-phase) assay; assay type: cell-based
Experimental: For determination of cellular fractions in various stages of the cell cycle following various treatments, HS68 cells (human skin fibroblast cell line (Rb-positive)) were stained with propidium iodide staining solution and run on Dako Cyan Flow Cytometer. The fraction of cells in G0-G1 DNA cell cycle versus the fraction in S-phase DNA cell cycle was determined using FlowJo 7.2 0.2 analysis.
The compounds listed in Table 1 were tested for their ability to arrest HS68 cells at the G1 phase of the cell cycle.

[2] = Mouse pharmacokinetics (oral gavage / intravenous); assay type: in vivo, mice
HSPCs (bone marrow) = assay: HSPC proliferation in bone marrow by EdU incorporation after oral gavage; assay type: in vivo, mice
Experimental: Mice were then sacrificed at the indicated times (0, 12, 24, 36, or 48 hours following compound administration), and bone marrow was harvested (n=3 mice per time point), as previously described (Johnson et al. J. Clin. Invest. (2010) 120(7), 2528-2536). Four hours before the bone marrow was harvested, mice were treated with 100 μg of EdU by intraperitoneal injection (Invitrogen). Bone marrow mononuclear cells were harvested and immunophenotyped using previously described methods and percent EdU positive cells were then determined (Johnson et al. J. Clin. Invest. (2010) 120(7), 2528-2536). In brief, HSPCs were identified by expression of lineage markers (Lin-), Sca1 (S+), and c-Kit (K+).
Four hours before animals were sacrificed and the bone marrow was harvested, mice were treated with 100 μg of EdU by intraperitoneal injection. Three mice per group were sacrificed at 12 hours and the remaining three animals per group were sacrificed at 24 hours. Results are shown in FIG. 6A as the ratio of EdU positive cells for treated animals at 12 or 24 hour time points compared to control.
Further experiments were completed with Compound T examining dose response and longer periods of compound treatment. […] […].
Both compounds were administered at 150 mg/kg by oral gavage. One hour prior to harvesting bone marrow, EdU was IP injected to label cycling cells. Bone marrow was harvested at 12, 24, 36, and 48 hours after compound treatment and the percentage of EdU positive HSPC cells was determined at each time point.

[3] = humans; cited from earlier work
[4] = mice; cited from earlier work
[5] = PD0332991 pharmacokinetics / HSPC arrest in humans; assay type: in vivo
Experimental: When calculated half-life was longer than the duration of the experiment, the half-life was expressed as >the longest incubation time. The calculated half-life is also listed in parentheses. […] The timely resumption of cellular proliferation is necessary for tissue repair, and therefore an overly long period of arrest is undesirable in healthy cells such as HSPCs. The characteristics of a CDK4/6 inhibitor that dictate its arresting duration are its pharmacokinetic (PK) and enzymatic half-lives. Once initiated, a G1-arrest in vivo will be maintained as long as circulating compound remains at an inhibitory level, and as long as the compound engages the enzyme. […] […]. […] […]. These observations may explain the severe granulocytopenia seen with PD0332991 in the clinic.

[6] = tested on: RB-negative SCLC cell lines (H69, H82, H209, H345, NCI417, or SHP-77); assay: EdU proliferation, RB-negative SCLC cell lines; conditions: 24 hours
[7] = tested on: human renal proximal tubule epithelial cells (Rb-positive); assay: Cellular wash-out experiment, renal proximal tubule epithelial cells; assay type: cell-based; conditions: 300 nM, compared to compounds T, Q, GG, or U
Experimental: Alternatively, the same experiment was done using normal Renal Proximal Tubule Epithelial Cells (Rb-positive) obtained from American Type Culture Collection (ATCC, Manassas, Va.). Cells were grown in an incubator at 37° C. in a humidified atmosphere of 5% CO2 in Renal Epithelial Cell Basal Media (ATCC) supplemented with Renal Epithelial Cell Growth Kit (ATCC) in 37° C. humidified incubator.
Upon harvesting cells, samples were stained with propidium iodide staining solution and samples run on Dako Cyan Flow Cytometer. The fraction of cells in G0-G1 DNA cell cycle versus the fraction in S-phase DNA cell cycle was determined using FlowJo 7.2 0.2 analysis.

[8] = Grade 3/4 neutropenia and leukopenia; cited from earlier work
[9] = tested on: HSPC (LKS+) and myeloid progenitor cells (LKS-); conditions: single oral dose 150 mg/kg, mice; cited from earlier work
[10] = Metabolic stability in liver microsomes; assay type: in vitro ADME, human, dog, rat, monkey, and mouse; conditions: Sprague-Dawley (rat), liver microsomes, pH 7.4; each of the species tested (human, monkey, dog, rat, mouse), 1 uM
Experimental: Human, mouse, and dog liver microsomes were purchased from Xenotech, and Sprague-Dawley rat liver microsomes were prepared by Absorption Systems. The reaction mixture comprising 0.5 mg/mL of liver microsomes, 100 mM of potassium phosphate, pH 7.4, 5 mM of magnesium chloride, and 1 uM of test compound was prepared. The test compound was added into the reaction mixture at a final concentration of 1 uM. An aliquot of the reaction mixture (without cofactor) was incubated in shaking water bath at 37 deg. C. for 3 minutes. The control compound, testosterone, was run simultaneously with the test compound in a separate reaction. The reaction was initiated by the addition of cofactor (NADPH), and the mixture was then incubated in a shaking water bath at 37 deg. C. Aliquots (100 μL) were withdrawn at 0, 10, 20, 30, and 60 minutes for the test compound and 0, 10, 30, and 60 minutes for testosterone. […] Test compound samples were analyzed using the Orbitrap high resolution mass spectrometer to quantify the disappearance of parent test compound and detect the appearance of metabolites. […] Half-lives were calculated using GraphPad software, fitting to a single-phase exponential decay equation.
When calculated half-life was longer than the duration of the experiment, the half-life was expressed as >the longest incubation time. The calculated half-life is also listed in parentheses. […]

[11] = tested on: HS68 cells (human fibroblast, Rb-positive); assay: Cellular wash-out experiment, HS68; assay type: cell-based
Experimental: EMBO J, 21(12)2936-2945 (2002) and Ruas et al. Mol Cell Biol, 27(12)-4273-4282 (2007)). […] On day 3, one set of treated cell samples were harvested in triplicate (0 Hour sample). Remaining cells were washed two times in PBS-CMF and returned to culture media lacking test compound. Sets of samples were harvested in triplicate at 24, 40, and 48 hours. Upon harvesting cells, samples were stained with propidium iodide staining solution and samples run on Dako Cyan Flow Cytometer. The fraction of cells in G0-G1 DNA cell cycle versus the fraction in S-phase DNA cell cycle was determined using FlowJo 7.2 0.2 analysis.

[12] = tested on: RB-intact, Cdk4/6-dependent cell line (WM2664 or tHS68); assay: EdU proliferation, RB-intact Cdk4/6-dependent cell line; conditions: 24 hours
[13] = plasma, iv, mouse, 10 mg/kg i.v.
[14] = plasma, mouse, 30 mg/kg oral gavage

Compound: CCC(C)CN1CCN(c2ccc(Nc3ncc4cc5n(c4n3)C3(CCCC3)CNC5=O)nc2)CC1 (stereo not shown) [AAA]
Fold Selectivity (CDK2/CycA/CDK4) (CDK2/CyclinA): 918 | IC50 (CDK2/CyclinA): 2130 nM | IC50 (CDK4/CyclinD1): 2.3 nM | Fold Selectivity (CDK2/CycE/CDK4) (CDK2/CyclinE): 2591 | IC50 (CDK2/CyclinE): 6010 nM | EC50 ([1]; HS68 cells): 275 nM

Compound: O=C1NCC2(CCCCC2)n2c1cc1cnc(Nc3ccc(N4CCNCC4)cn3)nc12 [Compound Q]
oral bioavailability (in words) ([2]; mice): low | F ([2]; mouse): 2% | half-life ([2]; mouse, plasma, po, 30 mg/kg, mouse, 30 mg/kg oral gavage, read-out: t1/2 p.o. (converted)): 48 min | AUC(0-inf) [2, 13]: 0.95 µM·h | clearance [2, 13]: 44 mL/min/kg | Vd ([2]; plasma, iv, mouse, 10 mg/kg i.v., read-out: Vss): 5.2 L/kg | AUC [2, 14]: 0.15 µM·h | Cmax [2, 14]: 160 nM | Tmax [2, 14]: 30 min | EdU incorporation into HSPCs at 12 and 24 hours compared to control (HSPCs (bone marrow); 150 mg/kg oral gavage): some reduction at 12 hours and started to return to baseline at 24 hours | G1-arrest of bone marrow stem cells (HSPC) (HSPCs (bone marrow); oral gavage, mice): dose dependent, transient, and reversible G1-arrest

Compound: CCC(C)CN1CCN(c2ccc(Nc3ncc4cc5n(c4n3)C3(CCCC3)CNC5=O)nc2)CC1 (stereo not shown) [FFF]
Fold Selectivity (CDK2/CycA/CDK4) (CDK2/CyclinA): 291 | IC50 (CDK2/CyclinA): 1370 nM | IC50 (CDK4/CyclinD1): 4.7 nM | Fold Selectivity (CDK2/CycE/CDK4) (CDK2/CyclinE): 966 | IC50 (CDK2/CyclinE): 4540 nM | EC50 ([1]; HS68 cells): 650 nM

Compound: CC(=O)c1c(C)c2cnc(Nc3ccc(N4CCNCC4)cn3)nc2n(C2CCCC2)c1=O [PD0332991, 6-acetyl-8-cyclopentyl-5-methyl-2-(5-piperazin-1-yl-pyridin-2-ylammino)-8H-pyrido-[2,3-d]-pyrimidin-7-one]
PK half-life [3]: 1620 min | PK half-life [4]: 360 min | duration of cell cycle arrest of HSPC after a single administration [5]: approximately one week | effect on proliferation (EdU, percent of cells in S-phase) [6]: does not affect the growth of the Rb-negative small cell lung cancer cell lines | return to baseline levels of cell division after wash out [7]: took significantly longer to return to baseline levels of cell division | patients requiring a dose interruption [8]: 71% | patients requiring a dose reduction [8]: 35% | duration of sustained reduction in HSPC and myeloid progenitor EdU incorporation [9]: greater than 36 hours | time post oral dosing at which HSPC and myeloid progenitor cells return to baseline cell division [9]: 48 h | half-life at 1 uM [10]: > 60 min | time post wash out for cells to return to normal baseline cell division ([11]; 300 nM, HS68 cells): greater than 48 hours | duration of cell cycle arrest in human cells after compound is removed (wash-out) ([11]; in vitro wash-out experiment): more than forty hours | effect on proliferation (EdU, percent of cells in S-phase) [12]: inhibits the Rb-positive cell line (WM2664)

Further lines, with some results ahead:

Fold Selectivity (CDK2/CycA/CDK4) (CDK2/CyclinA): 3402 | IC50 (CDK2/CyclinA): 2640 nM | IC50 (CDK4/CyclinD1): 0.8 nM | Fold Selectivity (CDK2/CycE/CDK4) (CDK2/CyclinE): 21263 | IC50 (CDK2/CyclinE): 16500 nM
Compound: CC1CN(c2ccc(Nc3ncc4cc5n(c4n3)C3(CCCC3)CNC5=O)nc2)CC(C)N1CCC(C)(C)C (stereo not shown) [PPP]
EC50 ([1]; Homo sapiens, Hs68, HS68 cells): 275 nM

IC50 (CDK4/CyclinD1): 7.4 nM | Fold Selectivity (CDK2/CycE/CDK4) (CDK2/CyclinE): 589 | IC50 (CDK2/CyclinE): 4380 nM
Compound: CCC(C)[C@@H]1CNC(=O)c2cc3cnc(Nc4ccc(N5CCN(C)CC5)cn4)nc3n21 (stereo partly shown) [VVV]
EC50 ([1]; Homo sapiens, Hs68, HS68 cells): 300 nM
